# Assay results taken from ChEMBL document CHEMBL3525917, “Species difference in the mechanism of nonlinear pharmacokinetics of E2074, a novel sodium channel inhibitor, in rats, dogs, and monkeys” (Drug Metab Dispos, 2013).
# Legend:
# Rattus norvegicus = organism: Rattus norvegicus; assay: Unbound intrinsic clearance in Sprague-Dawley rat; format: ADME, organism-based; conditions: in vivo
# Cynomolgus monkey [1] = assay: Ratio of dose normalized AUC in cynomolgus monkey at 3 mg/kg, po in presence of ketoconazole to dose normalized AUC in cynomolgus monkey at 3 mg/kg, po; format: ADME, organism-based, Macaca fascicularis; conditions: in vivo
# [2] = target: MDR1A (ABCB1, P-glycoprotein) (Mus musculus, UniProt P21447); assay: Activity of mouse MDR1A expressed in pig LLC-PK1 cells assessed as permeability from apical to basolateral side at 1 uM after 2 hrs; format: ADME, cell-based; conditions: read-out: permeability
# Chain of MDR1A (ABCB1, P-glycoprotein) (P21447 whole entry): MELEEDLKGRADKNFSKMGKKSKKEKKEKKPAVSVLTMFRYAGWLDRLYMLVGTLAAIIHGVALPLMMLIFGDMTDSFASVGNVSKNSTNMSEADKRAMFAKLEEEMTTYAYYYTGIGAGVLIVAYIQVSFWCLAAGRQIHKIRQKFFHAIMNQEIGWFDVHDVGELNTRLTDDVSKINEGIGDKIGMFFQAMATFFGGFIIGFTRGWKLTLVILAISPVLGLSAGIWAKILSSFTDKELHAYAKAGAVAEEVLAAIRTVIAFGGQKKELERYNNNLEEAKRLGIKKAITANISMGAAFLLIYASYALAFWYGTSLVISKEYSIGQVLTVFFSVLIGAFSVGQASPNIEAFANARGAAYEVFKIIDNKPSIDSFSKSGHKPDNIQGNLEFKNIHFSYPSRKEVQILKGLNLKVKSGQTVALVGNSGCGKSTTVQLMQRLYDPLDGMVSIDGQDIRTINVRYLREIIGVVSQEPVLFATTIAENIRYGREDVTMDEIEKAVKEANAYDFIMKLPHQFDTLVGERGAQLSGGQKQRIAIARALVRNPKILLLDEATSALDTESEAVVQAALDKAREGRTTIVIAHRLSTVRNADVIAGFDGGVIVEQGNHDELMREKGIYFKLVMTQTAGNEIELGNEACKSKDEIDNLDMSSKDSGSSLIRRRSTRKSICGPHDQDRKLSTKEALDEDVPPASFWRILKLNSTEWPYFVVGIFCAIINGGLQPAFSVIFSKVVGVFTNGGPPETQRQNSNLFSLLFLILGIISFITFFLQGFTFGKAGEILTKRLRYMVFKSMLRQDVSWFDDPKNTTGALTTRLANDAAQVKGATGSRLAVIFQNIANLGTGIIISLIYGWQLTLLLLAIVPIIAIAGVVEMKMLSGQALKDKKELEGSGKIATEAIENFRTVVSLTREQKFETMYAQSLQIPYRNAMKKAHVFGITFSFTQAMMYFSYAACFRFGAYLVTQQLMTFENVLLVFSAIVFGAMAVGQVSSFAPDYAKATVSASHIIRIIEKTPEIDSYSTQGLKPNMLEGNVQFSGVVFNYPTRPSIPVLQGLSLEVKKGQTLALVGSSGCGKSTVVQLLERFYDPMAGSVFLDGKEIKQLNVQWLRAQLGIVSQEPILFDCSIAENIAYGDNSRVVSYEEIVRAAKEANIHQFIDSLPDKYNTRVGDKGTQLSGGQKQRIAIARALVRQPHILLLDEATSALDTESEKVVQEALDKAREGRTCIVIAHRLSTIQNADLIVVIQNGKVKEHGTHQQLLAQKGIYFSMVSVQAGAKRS
# [3] = Half life in Sprague-Dawley rat at 30 mg/kg, po; format: ADME, organism-based; design: dose 30 mg/kg, route oral; conditions: in vivo
# [4] = Fraction unbound in Sprague-Dawley rat plasma at 0.25 uM by equilibrium dialysis technique; format: ADME, cell-free
# [5] = target: MDR1A (P-glycoprotein, ABCB1) (Mus musculus, UniProt P21447); assay: Activity of mouse MDR1A expressed in pig LLC-PK1 cells assessed as efflux ratio of permeability from basolateral to apical side to apical to basolateral side at 1 uM after 2 hrs; format: ADME, cell-based
# Chain of MDR1A (P-glycoprotein, ABCB1) (P21447 whole entry): as above
# [6] = Half life in beagle dog at 10 mg/kg, po; format: ADME, organism-based, Canis lupus familiaris; design: dose 10 mg/kg, route oral; conditions: in vivo
# [7] = AUC in cynomolgus monkey at 3 mg/kg, po; format: ADME, organism-based, Macaca fascicularis; design: dose 3 mg/kg, route oral; conditions: plasma
# [8] = Half life in cynomolgus monkey at 1 mg/kg, iv; format: ADME, organism-based, Macaca fascicularis; design: dose 1 mg/kg, route intravenous; conditions: in vivo
# [9] = Cmax in Sprague-Dawley rat at 30 mg/kg, po; format: ADME, organism-based; design: dose 30 mg/kg, route oral; conditions: in vivo
# [10] = AUC in Sprague-Dawley rat at 1 mg/kg, iv; format: ADME, organism-based; design: dose 1 mg/kg, route intravenous; conditions: plasma
# [11] = Cmax in beagle dog at 3 mg/kg, po; format: ADME, organism-based, Canis lupus familiaris; design: dose 3 mg/kg, route oral; conditions: in vivo
# Canis familiaris = organism: Canis familiaris; assay: Unbound intrinsic clearance in beagle dog; format: ADME, organism-based, Canis lupus familiaris; conditions: in vivo
# [12] = (§1) Drug metabolism in beagle dog liver microsomes after 30 mins by Michaelis-Menten plot analysis; format: ADME, Canis lupus familiaris; conditions: beagle, liver microsomes
# Liver microsome [13] = assay: as §1; format: ADME, Canis lupus familiaris; conditions: microsomes, 0.5 h
# [14] = AUC in cynomolgus monkey at 10 mg/kg, po in presence of ketoconazole; format: ADME, organism-based, Macaca fascicularis; design: dose 10 mg/kg, route oral; conditions: plasma
# [15] = Blood clearance in beagle dog; format: ADME, organism-based, Canis lupus familiaris
# [16] = AUC in Sprague-Dawley rat at 10 mg/kg, po; format: ADME, organism-based; design: dose 10 mg/kg, route oral; conditions: plasma
# [17] = Tmax in beagle dog at 10 mg/kg, po; format: ADME, organism-based, Canis lupus familiaris; design: dose 10 mg/kg, route oral; conditions: in vivo
# [18] = Half life in Sprague-Dawley rat at 10 mg/kg, po; format: ADME, organism-based; design: dose 10 mg/kg, route oral; conditions: in vivo
# [19] = Fraction unbound in Sprague-Dawley rat liver microsomes at 0.25 uM by equilibrium dialysis technique; format: ADME
# [20] = Clearance in cynomolgus monkey at 1 mg/kg, iv; format: ADME, organism-based, Macaca fascicularis; design: dose 1 mg/kg, route intravenous; conditions: in vivo
# [21] = Half life in beagle dog at 1 mg/kg, iv; format: ADME, organism-based, Canis lupus familiaris; design: dose 1 mg/kg, route intravenous; conditions: in vivo
# [22] = Ratio of drug level in brain to plasma in MDR1A/1B knock-out mouse at 3 mg/kg, po; format: ADME, organism-based; design: dose 3 mg/kg, route oral; conditions: brain and plasma
# [23] = (§2) Drug metabolism in beagle dog liver microsomes after 30 mins by biphasic component Michaelis-Menten plot analysis; format: ADME, Canis lupus familiaris; conditions: beagle, liver microsomes
# Liver microsome [24] = assay: as §2; format: ADME, Canis lupus familiaris; conditions: microsomes, 0.5 h
# [25] = Tmax in cynomolgus monkey at 3 mg/kg, po; format: ADME, organism-based, Macaca fascicularis; design: dose 3 mg/kg, route oral; conditions: in vivo
# [26] = Volume of distribution at steady state in Sprague-Dawley rat at 1 mg/kg, iv; format: ADME, organism-based; design: dose 1 mg/kg, route intravenous; conditions: in vivo, read-out: Vdss
# [27] = Ratio of drug level in blood to plasma in Sprague-Dawley rat at 0.25 uM after 10 mins by equilibrium dialysis technique; format: ADME; conditions: blood and plasma
# [28] = Volume of distribution at steady state in beagle dog at 1 mg/kg, iv; format: ADME, organism-based, Canis lupus familiaris; design: dose 1 mg/kg, route intravenous; conditions: in vivo, read-out: Vdss
# Cynomolgus monkey [29] = assay: Ratio of dose normalized Cmax in cynomolgus monkey at 10 mg/kg, po in presence of ketoconazole to dose normalized Cmax in cynomolgus monkey at 10 mg/kg, po; format: ADME, organism-based, Macaca fascicularis; conditions: in vivo
# [30] = Cmax in cynomolgus monkey at 10 mg/kg, po in presence of ketoconazole; format: ADME, organism-based, Macaca fascicularis; design: dose 10 mg/kg, route oral; conditions: in vivo
# [31] = Fraction unbound in beagle dog liver microsomes at 0.25 uM by equilibrium dialysis technique; format: ADME, Canis lupus familiaris
# [32] = Blood clearance in cynomolgus monkey; format: ADME, organism-based, Macaca fascicularis
# [33] = AUC in MDR1A/1B knock-out mouse at 3 mg/kg, po; format: ADME, organism-based; design: dose 3 mg/kg, route oral; conditions: plasma
# [34] = Clearance in Sprague-Dawley rat at 1 mg/kg, iv; format: ADME, organism-based; design: dose 1 mg/kg, route intravenous; conditions: in vivo
# [35] = Cmax in beagle dog at 10 mg/kg, po; format: ADME, organism-based, Canis lupus familiaris; design: dose 10 mg/kg, route oral; conditions: in vivo
# [36] = Oral bioavailability in cynomolgus monkey at 3 mg/kg; format: ADME, organism-based, Macaca fascicularis; conditions: in vivo
# [37] = Drug metabolism in cynomolgus monkey intestinal microsomes by Michaelis-Menten plot analysis; format: ADME, Macaca fascicularis, Intestine, Microsome
# [38] = AUC in cynomolgus monkey at 1 mg/kg, iv in presence of ketoconazole; format: ADME, organism-based, Macaca fascicularis; design: dose 1 mg/kg, route intravenous; conditions: plasma
# [39] = Ratio of drug level in blood to plasma in cynomolgus monkey at 0.25 uM after 10 mins by equilibrium dialysis technique; format: ADME, Macaca fascicularis; conditions: blood and plasma
# [40] = AUC in cynomolgus monkey at 10 mg/kg, po; format: ADME, organism-based, Macaca fascicularis; design: dose 10 mg/kg, route oral; conditions: plasma
# [41] = Solubility of the compound in phosphate buffered saline at pH 7 to 7.2; format: physicochemical
# [42] = Cmax in cynomolgus monkey at 3 mg/kg, po; format: ADME, organism-based, Macaca fascicularis; design: dose 3 mg/kg, route oral; conditions: in vivo
# [43] = Tmax in Sprague-Dawley rat at 3 mg/kg, po; format: ADME, organism-based; design: dose 3 mg/kg, route oral; conditions: in vivo
# [44] = AUC in beagle dog at 10 mg/kg, po; format: ADME, organism-based, Canis lupus familiaris; design: dose 10 mg/kg, route oral; conditions: plasma
# Cynomolgus monkey [45] = assay: Hepatic blood clearance in cynomolgus monkey; format: ADME, organism-based, Macaca fascicularis; conditions: in vivo
# [46] = Tmax in MDR1A/1B knock-out mouse at 3 mg/kg, po; format: ADME, organism-based; design: dose 3 mg/kg, route oral; conditions: in vivo
# [47] = Volume of distribution at steady state in cynomolgus monkey at 1 mg/kg, iv; format: ADME, organism-based, Macaca fascicularis; design: dose 1 mg/kg, route intravenous; conditions: in vivo, read-out: Vdss
# [48] = Cmax in cynomolgus monkey at 10 mg/kg, po; format: ADME, organism-based, Macaca fascicularis; design: dose 10 mg/kg, route oral; conditions: in vivo
# [49] = Tmax in cynomolgus monkey at 10 mg/kg, po in presence of ketoconazole; format: ADME, organism-based, Macaca fascicularis; design: dose 10 mg/kg, route oral; conditions: in vivo
# [50] = Blood clearance in Sprague-Dawley rat; format: ADME, organism-based
# [51] = AUC in Sprague-Dawley rat at 30 mg/kg, po; format: ADME, organism-based; design: dose 30 mg/kg, route oral; conditions: plasma
smiles,measurement,setting,value
Cc1nn(C[C@H](F)CN2C3CCC2CC(OCc2cccc(F)c2)C3)c(=O)n1C (some centres undefined),CL free,Rattus norvegicus,196 µL/min/mg
same,Ratio,Cynomolgus monkey [1],1
same,"Papp A→B at 2 h, 1 µM",[2],9.67 ×10⁻⁶ cm/s
same,half-life,[3],1.36 h
same,fraction unbound at 0.25 µM,[4],0.675
same,"efflux ratio at 2 h, 1 µM",[5],3.14
same,half-life,[6],1.82 h
same,AUC,[7],180 ng·h/mL
same,half-life,[8],1.93 h
same,Cmax,[9],1360 ng/mL
same,AUC,[10],310 ng·h/mL
same,Cmax,[11],20 ng/mL
same,CL free,Canis familiaris,208 µL/min/mg
same,Km at 0.5 h,[12],0.41 µM
same,Vmax,Liver microsome [13],0.07 nmol/min/mg
same,AUC,[14],7090 ng·h/mL
same,clearance,[15],32.8 mL/min/kg
same,AUC,[16],170 ng·h/mL
same,Tmax,[17],0.5 h
same,half-life,[18],0.57 h
same,fraction unbound at 0.25 µM,[19],1
same,clearance,[20],22.5 mL/min/kg
same,half-life,[21],1.04 h
same,Kp,[22],8.3
same,Km at 0.5 h,[23],21.5 µM
same,Vmax,Liver microsome [24],0.72 nmol/min/mg
same,Tmax,[25],1 h
same,Vd,[26],2.54 L/kg
same,"blood plasma ratio at 10 min, 0.25 µM",[27],0.89
same,Vd,[28],1.84 L/kg
same,Ratio,Cynomolgus monkey [29],4.5
same,Cmax,[30],1520 ng/mL
same,fraction unbound at 0.25 µM,[31],1
same,clearance,[32],22.3 mL/min/kg
same,AUC,[33],240 ng·h/mL
same,clearance,[34],53.5 mL/min/kg
same,Cmax,[35],1070 ng/mL
same,bioavailability,[36],7.8%
same,Km,[37]; intestinal microsomes,34.6 µM
same,Vmax,[37]; microsomes,0.66 nmol/min/mg
same,AUC,[38],820 ng·h/mL
same,"blood plasma ratio at 10 min, 0.25 µM",[39],1.01
same,AUC,[40],1580 ng·h/mL
same,solubility,[41],> 2000 µg/mL
same,Cmax,[42],40 ng/mL
same,Tmax,[43],0.25 h
same,AUC,[44],2730 ng·h/mL
same,CLH,Cynomolgus monkey [45],33 mL/min/kg
same,Tmax,[46],0.25 h
same,Vd,[47],3.07 L/kg
same,Cmax,[48],470 ng/mL
same,Tmax,[49],2 h
same,clearance,[50],60 mL/min/kg
same,AUC,[51],1420 ng·h/mL
